In patent US20030166601A1, “Novel colloid synthetic vectors for gene therapy” (priority 1999, published 2003):
Blank lines part the entries; values can stand above or below the compound they belong to.

What was measured:
[1] = Particle size of substituted aminoethanol-DNA complexes; assay type: physicochemical
From the text: The component streams intersect in the mixer, whereby shearing and mixing of the DNA and polymer are induced, whereby particles of a complex of DNA and polymer are formed. The resulting preparations may be tested for mean particle size in nanometers and distribution through dynamic light scattering using, for example, a Coulter N4 Plus Submicron Particle Sizer (Coulter Corporation, Miami, Fla.). Mean particle sizes and standard deviaitons can be determined by the unimodal and Size Distribution Processing (SDP), or “intensity” methods.
In the above methods, a laser is directed through a preparation of the particles. Dynamic light scattering is measured as a result of the Brownian motion of the particles. The dynamic light scattering-which is measured then is correlated-to particle size. In the unimodal method, the size distribution is determined by placing the sizes of the particles on a Gaussian curve. In the SDP method, size distribution is determined by a FORTRAN program called CONTIN. Such methods also are described further in the Coulter N4 Plus Submicron Particle Sizer Reference Manual (November 1995).
(§1) Substituted aminoethanols lacking long chain hydrocarbon (aliphatic) substitutients were used to compact plasmid DNA into a colloidal dispersion in water. The size and zeta potential of the colloidal dispersions prepared were determined at different charge ratios for added cation (amine) to anion (DNA phosphate) and are shown in Table 1 and FIG. 4. The colloidal dispersions prepared permit compaction of the DNA into core complexes that are suitable for the invention.

[2] = Zeta potential of substituted aminoethanol-DNA complexes; assay type: physicochemical; conditions: in mV (unit assumed)
Procedure: as §1

cultured cells = assay: Transfection of cultured cells, luciferase activity; assay type: cell-based
From the text: The gene delivery ability of substituted aminoethanols with long chain hydrocarbon (aliphatic) substitutients was studied by transfection of cultured cells and then in vivo by intravenous injection (Table 2 and 3). The substituted aminoethanols have two hydrophilic polar heads connected with one hydrophobic body, which was named bihead lipids. Bihead lipids are proposed to form a monolayer membrane.

CD-1 mice = assay: Luciferase expression in organs after intravenous injection of pCILuc complexes; assay type: in vivo; conditions: for Luciferase RLU/20 ul lysate heart / Luciferase RLU/20 ul lysate kidney / Luciferase RLU/20 ul lysate liver / Luciferase RLU/20 ul lysate lung / Luciferase RLU/20 ul lysate spleen: 40 μg pCILuc i.v., 5 h; for expression in vivo by core complexes: mouse
Procedure: Substituted aminoethanols (cationic compounds) were prepared as described in Examples 1-34. Their gene delivery ability was studied in vivo by intravenous injection (Table 1 and 2) using a standard method. The preparations were administered via tail vein injection to mice and gene expression determined after 5 hours. Female CD-1 mice, 13-15 g, were purchased from Charles River Inc. Forty microgram of pCILuc complexed with GC lipids or GC lipid:Chol dispersion as indicated weight ratios. After 5 h, mice were sacrificed and organs were collected. Organs were homogenized in 0.5 ml of lysis buffer and 20 μl of supernatant was used for luciferase assay. Luciferase activity was represented as a mean of relative light unit (RLU) of four mice. The lipids were either used alone or combined with cholesterol and complexed with a luciferase reporter gene plasmid by a standard procedure at a range of weight and charge ratios. For the in vivo screen, 40 μg of pCILuc was complexed with the formulation and injected into the mice.
All compounds were evaluated for in vivo activity. Two critical factors were examined, formulation with or without cholesterol and the ratio of cationic lipid to DNA. Cholesterol was tested at 1:1 mole ratio of lipid:chol. The studies were performed with a dose of 40 μg of pCILuc complexed with cationic lipid or lipid: Chol (1:1 mole ratio) injected i.v. into CD-1 mice and then luciferase activity in different organs determined 5 h later. The first evaluation included all of 14 GC-lipids at weight ratios of 2 and 10 (GC lipid to DNA). It was performed by four separated experiments. Each time cationic liposome DOTAP:Chol was used as a standard control.
Measurements were repeated with lipids GC-030, GC-034 and GC-029 at wider weight ratios than the first experiment. Luciferase activity is represented as a mean of relative light unit (RLU) of four mice. WR means weight ratio of GC lipids to DNA. The transfection activity was represented by luciferase activity RLU/organ. […] The transfection activity increased with the increased weight ratio (GC lipids to DNA). Inclusion of cholesterol can change the biodistribution of gene expression in the different organs examined. […] However this function of cholesterol was not seen with GC-034.

Particle Size ([1]; charge ratio (+/−) 0.5): 136 nm
Particle Size ([1]; charge ratio (+/−) 1.0): 62.6 nm
Particle Size ([1]; charge ratio (+/−) 1.5): 93.4 nm
Particle Size ([1]; charge ratio (+/−) 2.0): 573.5 nm
Particle Size ([1]; charge ratio (+/−) 3.0): 987.4 nm
Particle Size ([1]; charge ratio (+/−) 4.0): 4959 nm
Zeta Potential ([2]; charge ratio (+/−) 0.5): −40.9
Zeta Potential ([2]; charge ratio (+/−) 1.0): −8.72
Zeta Potential ([2]; charge ratio (+/−) 1.5): −7.67
Zeta Potential ([2]; charge ratio (+/−) 2.0): −7.08
Zeta Potential ([2]; charge ratio (+/−) 3.0): −5.03
Zeta Potential ([2]; charge ratio (+/−) 4.0): −4.87
Compound: CCNCCCNCCCCNCCCNCC [CGP 41660A]

Particle Size ([1]; charge ratio (+/−) 1.0): 77.6 nm
Particle Size ([1]; charge ratio (+/−) 1.5): 192.4 nm
Particle Size ([1]; charge ratio (+/−) 2.0): 293.3 nm
Particle Size ([1]; charge ratio (+/−) 3.0): 3946.4 nm
Particle Size ([1]; charge ratio (+/−) 4.0): 4304.7 nm
Zeta Potential ([2]; charge ratio (+/−) 0.5): −17.6
Zeta Potential ([2]; charge ratio (+/−) 1.0): −15.4
Zeta Potential ([2]; charge ratio (+/−) 1.5): −9.1
Zeta Potential ([2]; charge ratio (+/−) 2.0): −8.71
Zeta Potential ([2]; charge ratio (+/−) 3.0): −6.01
Zeta Potential ([2]; charge ratio (+/−) 4.0): −5.52
Compound: C(CNCCC1CCCCN1)CNCCC1CCCCN1 (stereo not drawn) [CGP 61670A]

Compound: CCCCCCCCCCCCCCC(O)CN(CCCN)CCCCCCCCCCCCCN(CCCN)CC(O)CCCCCCCCCCCCCC (stereo not drawn) [CGP44015A]
Luciferase activity Ave. RLU × 10000/well FBS(+) (cultured cells; charge ratio (+/−) 0.5): 130 RLU × 10000/well
Luciferase activity Ave. RLU × 10000/well FBS(−) (cultured cells; charge ratio (+/−) 0.5): 159 RLU × 10000/well
Luciferase activity Ave. RLU × 10000/well FBS(+) (cultured cells; charge ratio (+/−) 1): 3,373 RLU × 10000/well
Luciferase activity Ave. RLU × 10000/well FBS(−) (cultured cells; charge ratio (+/−) 1): 3,252 RLU × 10000/well
Luciferase activity Ave. RLU × 10000/well FBS(+) (cultured cells; charge ratio (+/−) 2): 17,315 RLU × 10000/well
Luciferase activity Ave. RLU × 10000/well FBS(−) (cultured cells; charge ratio (+/−) 2): 17,063 RLU × 10000/well
Luciferase activity Ave. RLU × 10000/well FBS(+) (cultured cells; charge ratio (+/−) 4): 25,732 RLU × 10000/well
Luciferase activity Ave. RLU × 10000/well FBS(−) (cultured cells; charge ratio (+/−) 4): 24,484 RLU × 10000/well
Luciferase activity Ave. RLU × 10000/well FBS(+) (cultured cells; charge ratio (+/−) 6): 27,844 RLU × 10000/well
Luciferase activity Ave. RLU × 10000/well FBS(−) (cultured cells; charge ratio (+/−) 6): 24,089 RLU × 10000/well
Luciferase activity Ave. RLU × 10000/well FBS(+) (cultured cells; charge ratio (+/−) 8): 27,298 RLU × 10000/well
Luciferase activity Ave. RLU × 10000/well FBS(−) (cultured cells; charge ratio (+/−) 8): 24,150 RLU × 10000/well
Luciferase RLU/20 ul lysate heart (CD-1 mice; CR 0.5): 74 RLU/20 ul lysate
Luciferase RLU/20 ul lysate kidney (CD-1 mice; CR 0.5): 72 RLU/20 ul lysate
Luciferase RLU/20 ul lysate liver (CD-1 mice; CR 0.5): 86 RLU/20 ul lysate
Luciferase RLU/20 ul lysate lung (CD-1 mice; CR 0.5): 82 RLU/20 ul lysate
Luciferase RLU/20 ul lysate spleen (CD-1 mice; CR 0.5): 80 RLU/20 ul lysate
Luciferase RLU/20 ul lysate heart (CD-1 mice; CR 1): 73 RLU/20 ul lysate
Luciferase RLU/20 ul lysate kidney (CD-1 mice; CR 1): 71 RLU/20 ul lysate
Luciferase RLU/20 ul lysate liver (CD-1 mice; CR 1): 219 RLU/20 ul lysate
Luciferase RLU/20 ul lysate lung (CD-1 mice; CR 1): 95 RLU/20 ul lysate
Luciferase RLU/20 ul lysate spleen (CD-1 mice; CR 1): 168 RLU/20 ul lysate
Luciferase RLU/20 ul lysate heart (CD-1 mice; CR 4): 379 RLU/20 ul lysate
Luciferase RLU/20 ul lysate kidney (CD-1 mice; CR 4): 528 RLU/20 ul lysate
Luciferase RLU/20 ul lysate liver (CD-1 mice; CR 4): 3,817 RLU/20 ul lysate
Luciferase RLU/20 ul lysate lung (CD-1 mice; CR 4): 19,717 RLU/20 ul lysate
Luciferase RLU/20 ul lysate spleen (CD-1 mice; CR 4): 4,778 RLU/20 ul lysate
Luciferase RLU/20 ul lysate heart (CD-1 mice; CR 10): 103 RLU/20 ul lysate
Luciferase RLU/20 ul lysate kidney (CD-1 mice; CR 10): 281 RLU/20 ul lysate
Luciferase RLU/20 ul lysate liver (CD-1 mice; CR 10): 1,283 RLU/20 ul lysate
Luciferase RLU/20 ul lysate lung (CD-1 mice; CR 10): 4,470 RLU/20 ul lysate
Luciferase RLU/20 ul lysate spleen (CD-1 mice; CR 10): 4,108 RLU/20 ul lysate
Luciferase RLU/20 ul lysate heart (CD-1 mice; CR 20): 75 RLU/20 ul lysate
Luciferase RLU/20 ul lysate kidney (CD-1 mice; CR 20): 70 RLU/20 ul lysate
Luciferase RLU/20 ul lysate liver (CD-1 mice; CR 20): 243 RLU/20 ul lysate
Luciferase RLU/20 ul lysate lung (CD-1 mice; CR 20): 84 RLU/20 ul lysate
Luciferase RLU/20 ul lysate spleen (CD-1 mice; CR 20): 69 RLU/20 ul lysate
expression in vivo by core complexes (CD-1 mice): exhibit expression in vivo

Compound: CCCCCCCCCCCCC(O)CN(CCCN)CCCCCCCCCCCCCN(CCCN)CC(O)CCCCCCCCCCCC (stereo not drawn) [CGP47204A]
Luciferase activity Ave. RLU × 10000/well FBS(+) (cultured cells; charge ratio (+/−) 0.5): 11 RLU × 10000/well
Luciferase activity Ave. RLU × 10000/well FBS(−) (cultured cells; charge ratio (+/−) 0.5): 33 RLU × 10000/well
Luciferase activity Ave. RLU × 10000/well FBS(+) (cultured cells; charge ratio (+/−) 1): 821 RLU × 10000/well
Luciferase activity Ave. RLU × 10000/well FBS(−) (cultured cells; charge ratio (+/−) 1): 737 RLU × 10000/well
Luciferase activity Ave. RLU × 10000/well FBS(+) (cultured cells; charge ratio (+/−) 2): 8,079 RLU × 10000/well
Luciferase activity Ave. RLU × 10000/well FBS(−) (cultured cells; charge ratio (+/−) 2): 8,386 RLU × 10000/well
Luciferase activity Ave. RLU × 10000/well FBS(+) (cultured cells; charge ratio (+/−) 4): 13,088 RLU × 10000/well
Luciferase activity Ave. RLU × 10000/well FBS(−) (cultured cells; charge ratio (+/−) 4): 15,009 RLU × 10000/well
Luciferase activity Ave. RLU × 10000/well FBS(+) (cultured cells; charge ratio (+/−) 6): 22,694 RLU × 10000/well
Luciferase activity Ave. RLU × 10000/well FBS(−) (cultured cells; charge ratio (+/−) 6): 20,091 RLU × 10000/well
Luciferase activity Ave. RLU × 10000/well FBS(+) (cultured cells; charge ratio (+/−) 8): 21,644 RLU × 10000/well
Luciferase activity Ave. RLU × 10000/well FBS(−) (cultured cells; charge ratio (+/−) 8): 17,740 RLU × 10000/well
Luciferase RLU/20 ul lysate heart (CD-1 mice; CR 0.5): 38 RLU/20 ul lysate
Luciferase RLU/20 ul lysate kidney (CD-1 mice; CR 0.5): 39 RLU/20 ul lysate
Luciferase RLU/20 ul lysate liver (CD-1 mice; CR 0.5): 45 RLU/20 ul lysate
Luciferase RLU/20 ul lysate lung (CD-1 mice; CR 0.5): 44 RLU/20 ul lysate
Luciferase RLU/20 ul lysate spleen (CD-1 mice; CR 0.5): 80 RLU/20 ul lysate
Luciferase RLU/20 ul lysate heart (CD-1 mice; CR 1): 41 RLU/20 ul lysate
Luciferase RLU/20 ul lysate kidney (CD-1 mice; CR 1): 38 RLU/20 ul lysate
Luciferase RLU/20 ul lysate liver (CD-1 mice; CR 1): 53 RLU/20 ul lysate
Luciferase RLU/20 ul lysate lung (CD-1 mice; CR 1): 51 RLU/20 ul lysate
Luciferase RLU/20 ul lysate spleen (CD-1 mice; CR 1): 467 RLU/20 ul lysate
Luciferase RLU/20 ul lysate heart (CD-1 mice; CR 4): 129 RLU/20 ul lysate
Luciferase RLU/20 ul lysate kidney (CD-1 mice; CR 4): 386 RLU/20 ul lysate
Luciferase RLU/20 ul lysate liver (CD-1 mice; CR 4): 4,583 RLU/20 ul lysate
Luciferase RLU/20 ul lysate lung (CD-1 mice; CR 4): 5,009 RLU/20 ul lysate
Luciferase RLU/20 ul lysate spleen (CD-1 mice; CR 4): 5,594 RLU/20 ul lysate
Luciferase RLU/20 ul lysate heart (CD-1 mice; CR 10): 983 RLU/20 ul lysate
Luciferase RLU/20 ul lysate kidney (CD-1 mice; CR 10): 156 RLU/20 ul lysate
Luciferase RLU/20 ul lysate liver (CD-1 mice; CR 10): 3,270 RLU/20 ul lysate
Luciferase RLU/20 ul lysate lung (CD-1 mice; CR 10): 38,115 RLU/20 ul lysate
Luciferase RLU/20 ul lysate spleen (CD-1 mice; CR 10): 6,378 RLU/20 ul lysate
Luciferase RLU/20 ul lysate heart (CD-1 mice; CR 20): 96 RLU/20 ul lysate
Luciferase RLU/20 ul lysate kidney (CD-1 mice; CR 20): 113 RLU/20 ul lysate
Luciferase RLU/20 ul lysate liver (CD-1 mice; CR 20): 429 RLU/20 ul lysate
Luciferase RLU/20 ul lysate lung (CD-1 mice; CR 20): 3,258 RLU/20 ul lysate
Luciferase RLU/20 ul lysate spleen (CD-1 mice; CR 20): 779 RLU/20 ul lysate
expression in vivo by core complexes (CD-1 mice): exhibit expression in vivo
